pIC50: −log10 of the molar value. Values joined by “and” are separate entries in the source; they are usually repeats but may differ in a detail not shown here. Equal entries are not always repeated.
Test system: 885724-159-R-J1-PDC complex spheroid viability
Experiment: Anticancer human tumor 885724-159-R-J1-PDC patient-derived pancreatic adenocarcinoma cell line growth inhibition [GQUAD]
Settings: for viability, T/C: stronger effect = lower value
Text: DNA G-quadruplex Stabilizer Agents in Combinations in Complex Spheroids
A high-throughput screen of multi-cell type tumor spheroids was designed to identify active combinations of DNA G-quadruplex stabilizer agents and targeted small molecules. Complex spheroids include a stromal component modeled by human endothelial cells (HUVEC) and fibroblasts modeled by human mesenchymal stem cells (MSCs). The concentration ranges selected for each drug and investigational agent were based upon clinically achievable concentrations if the clinical Cmax of the agent was known.
Compounds. The drugs and investigational agents: pidnarulex (CX-5461; NSC782164), APTO-253 (NSC789042), BRACO-19 (NSC847499), peposertib (NSC802822), ceralasertib (NSC780249), elimusertib (NSC800525), camonsertib (NSC841442), AZD-1390 (NSC803789), olaparib (NSC753686), talazoparib (NSC767125), ART-558 (NSC835418), sotorasib (NSC818433), MRTX-1133 (NSC836407), SN-38 (NSC673596), topotecan (NSC609699), etoposide (NSC141540), doxorubicin (NSC123127), gemcitabine (NSC613327), 5-fluorouracil (NSC19893), paclitaxel (NSC125973), vemurafenib (NSC761431), panobinostat (NSC761190), R-306465 (JNJ-16241199; NSC773264), adavosertib (NSC754352), TP-3654 (NSC805149), carboplatin (NSC241240), KSQ-4279 (NSC840948), and staurosporine (NSC755774) were obtained from the National Cancer Institute (NCI) Developmental Therapeutics Program Chemical Repository (34). The FDA-approved anticancer drug set is available from the NCI Developmental Therapeutics Program. […] The stock solutions were prepared in dimethyl sulfoxide (DMSO, Sigma-Aldrich, St. Louis, MO, cat. D2650) at 800-fold the tested concentration and stored at -70 degrees C prior to their use. All drugs and investigational agents were tested over a range starting from a high concentration at or near the clinical Cmax and decreasing in half-log increments. If the clinical Cmax for an agent had not been determined, the highest concentration tested was 10 microM.
2.3 Cell Culture. All cells were maintained in an incubator at 37 degrees C and 5% CO2 with 95% humidity. The PDC lines were cultured according to standard operating procedures established by the NCI PDMR. All PDCs were thawed and cultured in Matrigel-coated flasks prepared with a working solution of 1X Ham's F-12 nutrient mix, without supplementation (Invitrogen, cat. 11765054), 100 U/mL penicillin-streptomycin (Invitrogen, cat. 15140122), and 2.5% Matrigel (Corning Inc., cat. 354248) for the first three passages. The 857933-349-R-J2-PDC line was cultured in 6C/Colon 1B media, which includes advanced DMEM/F-12 (Thermo Fisher Scientific, cat. 12634028), 10 mM HEPES (Thermo Fisher Scientific, cat. 15630080), 1X GlutaMAX supplement (Thermo Fisher Scientific, cat. 35050061), 0.1 mg/mL primocin (InvivoGen, cat. ant-pm-2), 10% defined fetal bovine serum, heat inactivated (HyClone Laboratories Inc., cat. SH30070.03HI), 50% L-WRN conditioned media (ATCC, cat. CRL-3276), 1.25 mM N-Acetyl-L-cysteine (Sigma-Aldrich, cat. A9165), 10 mM nicotinamide (Sigma-Aldrich, cat. N0636), 1X B-27 supplement (Thermo Fisher Scientific, cat. 17504044), 1X N-2 supplement (Thermo Fisher Scientific, cat. 17502048), 10 microM Y-27632 dihydrochloride (Tocris Bioscience, cat. 1254), and 50 ng/mL human EGF recombinant protein (Thermo Fisher Scientific, cat. PHG0311). The 485176-168-R4-J1-PDC line was cultured in Panc media, which includes all 6C/Colon 1B media components plus 100 ng/mL human FGF-10 (Thermo Fisher Scientific, cat. 100-26), 500 nM SB-431542 (Selleckchem, cat. S1067), and gastrin (Tocris, cat. 3006).
[…]

[1] = curve of first compound, second compound 0.0316 µM
[2] = curve of first compound, second compound 0.1 µM
[3] = curve of first compound, second compound 0.316 µM
[4] = curve of first compound, second compound 1 µM
[5] = curve of first compound, second compound 3.16 µM
[6] = curve of first compound, second compound 10 µM
[7] = second compound 0.0316 µM, first compound 0.0316 µM
[8] = second compound 0.0316 µM, first compound 0.1 µM
[9] = second compound 0.0316 µM, first compound 0.316 µM
[10] = second compound 0.0316 µM, first compound 1 µM
[11] = second compound 0.0316 µM, first compound 3.16 µM
[12] = second compound 0.0316 µM, first compound 10 µM
[13] = second compound 0.1 µM, first compound 0.0316 µM
[14] = second compound 0.1 µM, first compound 0.1 µM
[15] = second compound 0.1 µM, first compound 0.316 µM
[16] = second compound 0.1 µM, first compound 1 µM
[17] = second compound 0.1 µM, first compound 3.16 µM
[18] = second compound 0.1 µM, first compound 10 µM
[19] = second compound 0.316 µM, first compound 0.0316 µM
[20] = second compound 0.316 µM, first compound 0.1 µM
[21] = second compound 0.316 µM, first compound 0.316 µM
[22] = second compound 0.316 µM, first compound 1 µM
[23] = second compound 0.316 µM, first compound 3.16 µM
[24] = second compound 0.316 µM, first compound 10 µM
[25] = second compound 1 µM, first compound 0.0316 µM
[26] = second compound 1 µM, first compound 0.1 µM
[27] = second compound 1 µM, first compound 0.316 µM
[28] = second compound 1 µM, first compound 1 µM
[29] = second compound 1 µM, first compound 3.16 µM
[30] = second compound 1 µM, first compound 10 µM
[31] = second compound 3.16 µM, first compound 0.0316 µM
[32] = second compound 3.16 µM, first compound 0.1 µM
[33] = second compound 3.16 µM, first compound 0.316 µM
[34] = second compound 3.16 µM, first compound 1 µM
[35] = second compound 3.16 µM, first compound 3.16 µM
[36] = second compound 3.16 µM, first compound 10 µM
[37] = second compound 10 µM, first compound 0.0316 µM
[38] = second compound 10 µM, first compound 0.1 µM
[39] = second compound 10 µM, first compound 0.316 µM
[40] = second compound 10 µM, first compound 1 µM
[41] = second compound 10 µM, first compound 3.16 µM
[42] = second compound 10 µM, first compound 10 µM
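Note: spheroids exposed to agents for seven days before readout.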
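Throughout, for viability, T/C: percent of vehicle control viability where 100% = DMSO wells.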

`CC1COCCN1c1cc(-c2ccnn2C)c2ccnc(-c3ccn[nH]3)c2n1` (stereo unspecified) + Cc1[nH]c2ccc(F)cc2c1-c1nc2c3cccnc3c3ncccc3c2[nH]1 gave a pIC50 [1] of less than 5.00, a pIC50 [2] of less than 5.00 and a pIC50 [3] of 5.07. The pIC50 [4] was 5.55, the pIC50 [5] was 7.28 and the pIC50 [6] was 5.30. For the same molecule, the viability, T/C [7] was 104%, the viability, T/C [8] was 87.3% and the viability, T/C [9] was 87.2%. It also gave a viability, T/C [10] of 76.9%, a viability, T/C [11] of 53.3% and a viability, T/C [12] of 53.8%. For the same molecule, the viability, T/C [13] was 99.7%, the viability, T/C [14] was 104% and the viability, T/C [15] was 89.8%. For the same molecule, the viability, T/C [16] was 73.5%, the viability, T/C [17] was 62.5% and the viability, T/C [18] was 51.8%. It also gave a viability, T/C [19] of 98.7%, a viability, T/C [20] of 84.7% and a viability, T/C [21] of 68.7%. It also gave a viability, T/C [22] of 61.1%, a viability, T/C [23] of 56.6% and a viability, T/C [24] of 48%. The viability, T/C [25] was 80.4%, the viability, T/C [26] was 68.9% and the viability, T/C [27] was 63.8%. The viability, T/C [28] was 54.5%, the viability, T/C [29] was 51% and the viability, T/C [30] was 43.5%. For the same molecule, the viability, T/C [31] was 54.8%, the viability, T/C [32] was 39.6% and the viability, T/C [33] was 47.9%. For the same molecule, the viability, T/C [34] was 28.2%, the viability, T/C [35] was 24.8% and the viability, T/C [36] was 30.6%. The viability, T/C [37] was 66.3%, the viability, T/C [38] was 66% and the viability, T/C [39] was 62.9%. For the same molecule, the viability, T/C [40] was 52.9%, the viability, T/C [41] was 51.8% and the viability, T/C [42] was 47.9%.
With `CC1COCCN1c1cc(C2(O)CC3CCC(C2)O3)c2cnn(-c3ccn[nH]3)c2n1` (stereo unspecified) + Cc1[nH]c2ccc(F)cc2c1-c1nc2c3cccnc3c3ncccc3c2[nH]1 the pIC50 [1] was 5.72, the pIC50 [2] was 5.92 and the pIC50 [3] was 6.06. For the same molecule, the pIC50 [4] was 6.36, the pIC50 [5] was greater than 7.50 and the pIC50 [6] was 6.29. The viability, T/C [7] was 97.7%, the viability, T/C [8] was 77.5% and the viability, T/C [9] was 68.3%. The viability, T/C [10] was 55.2%, the viability, T/C [11] was 46% and the viability, T/C [12] was 37.8%. The viability, T/C [13] was 96.6%, the viability, T/C [14] was 88% and the viability, T/C [15] was 74.1%. It also gave a viability, T/C [16] of 50.1%, a viability, T/C [17] of 42.7% and a viability, T/C [18] of 37.7%. The viability, T/C [19] was 91%, the viability, T/C [20] was 79% and the viability, T/C [21] was 62.4%. It also gave a viability, T/C [22] of 47.3%, a viability, T/C [23] of 41.6% and a viability, T/C [24] of 35.5%. The viability, T/C [25] was 79.5%, the viability, T/C [26] was 66% and the viability, T/C [27] was 54.2%. For the same molecule, the viability, T/C [28] was 38.1%, the viability, T/C [29] was 37.4% and the viability, T/C [30] was 25.4%. For the same molecule, the viability, T/C [31] was 41.2%, the viability, T/C [32] was 29.9% and the viability, T/C [33] was 41.1%. It also gave a viability, T/C [34] of 22.6%, a viability, T/C [35] of 20.1% and a viability, T/C [36] of 8.51%. For the same molecule, the viability, T/C [37] was 69.6%, the viability, T/C [38] was 69% and the viability, T/C [39] was 51%. The viability, T/C [40] was 44.4%, the viability, T/C [41] was 33.1% and the viability, T/C [42] was 24.1%.
`CC1COCCN1c1cc(C2(O)CC3CCC(C2)O3)c2cnn(-c3ccn[nH]3)c2n1` (stereo unspecified) was tested, and the viability, T/C (compound 0.0316 µM) was 86.4% and 103% and 91.5%, the viability, T/C (compound 0.1 µM) was 85.4% and 80.9% and 79.5% and the viability, T/C (compound 0.316 µM) was 74.2% and 74.5% and 71.8%. For the same molecule, the viability, T/C (compound 1 µM) was 48.6% and 56% and 53.5%, the viability, T/C (compound 3.16 µM) was 37.3% and 46.2% and 47.5% and the viability, T/C (compound 10 µM) was 28.3% and 38.1% and 36.4%. The pIC50 (curve of compound) was 6.00 and 5.66 and 5.70.

— PubChem BioAssay AID2060502 (Molecular Pharmacology Branch, DTP, NCI, 2025)
